Data: patent US12447184B1, “Lactic acid bacteria and use thereof” (UNIVERSITY-INDUSTRY COOPERATION GROUP OF KYUNG HEE …, priority 2017, dated 2025)

Tests used:
[1] = test system: mouse; test: Forced swimming test (FST); type: in vivo; details: depressed mouse model
Procedure: (§1) Also, in order to prepare a mouse with depression induced by immobilization stress, the said mouse, which had been fixed to the apparatus, was repeatedly subjected to continuous immobilization stress once daily for two days, in such a way that the mouse was held with its head up for 12 hours. A lactic acid bacterium was administered once daily for five days, and a behavioral experiment was performed in one hour after a final administration.
According to a method of Porsolt et al. (Porsolt R D, Le Pichon, Jalfre M (1977) Depression: A new animal model sensitive to antidepressant treatments, Nature, Vol. 266; pp. 730-732), water at 25±1° C. was filled into a water tank 40 cm in height and 20 cm in diameter, until a water level reached 25 cm high. A laboratory mouse was put into each tank and stayed there for total six minutes, out of which first two minutes were not measured as an adaptive time, and then for the last four minutes, an immobility time of the laboratory animal was measured. The immobility means a state that the mouse is floating in the water motionlessly except the least movement to keep its head only above the water.

[2] = test system: mouse; test: Y maze test; type: in vivo; details: mouse given LPS from E. coli 0.5 mg/kg/day i.p. for five days; spontaneous alteration
Procedure: (§2) On a following day after intraperitoneally administering LPS isolated from E. coli (0.5 mg/kg/day) to a mouse for five days, lactic acid bacteria were administered thereto, and an effect of lactic acid bacteria on improving a cognitive function was identified in such a way that an object recognition test and a Y maze test were performed and BDNF in a hippocampus was measured by immunoblotting, wherein the results thereof are as shown in a following table 18.
Also, as a Y maze test method, a test apparatus consisted of the three identical arms (8 cm in length, […], 14 cm in height), each positioning at a certain angle of 120°. The mouse was placed at the end of one arm and allowed to freely move in a Y maze for eight minutes, after which the number and order of entering respective arms were measured, so as to evaluate a spontaneous alteration (%). The alteration was defined as an alphabetical character order, in which the mouse sequentially entered into three arms, i.e. ABC, BCA, CAB, etc. % alteration=[Total number of alterations]/[Total number of arm entries−2]×100

[3] = test system: colon; test: Colitis indicators (colon length, myeloperoxidase, inflammatory indicators of the colon); type: in vivo, mouse; details: antibiotic stress
[4] = test system: mouse; test: Tail suspension test (TST); type: in vivo; details: depressed mouse model
Procedure: as §1
According to a method of Steru et al. (Steru L, Chermat R, Thierry B, Simon P (1985) The tail suspension test: A new method for screening antidepressants in mice, Psychopharmacology, Vol. 85; pp. 367-370), a mouse was hanged up in a container 35 cm in diameter and 50 cm in height by placing a fixing device approximately 1 cm from the tip of a tail thereof of a mouse, such that the mouse was suspended 50 cm above a floor. For six minutes in total, an immobility time of the laboratory animal was measured.

[5] = test system: corticosterone, IL-6, TNF-α and lipopolysaccharide in blood; test: Blood indicators (corticosterone, IL-6, TNF-α, lipopolysaccharide); type: in vivo, mouse; details: for BC (ng/mL), corticosterone in blood: immobilization stress
Procedure: (§3) An anxiety behavior was measured in five hours after administering the lactic acid bacterium or physiological saline solution, and blood indicators (corticosterone, IL-6, TNF-α, etc.) were measured by collecting blood in one hour after finishing an elevated plus maze test.
Blood was diluted 10 times with PBS, then centrifuged, and then a resulting supernatant was treated at […] for 10 minutes. A resulting supernatant was filtered with a 0.45 μm filter, then filtered again with a 0.22 μm filter, and then used as a specimen. For the said specimen, lipopolysaccharide was measured by means of Limulus amoebocyte lysate (LAL) assay kit (Cape Cod Inc., East Falmouth, MA, U.S.A.).
(§4) Inflammatory reaction biomarkers such as p-p65, p65, iNOS, COX-2 and β-actin were measured by means of a western blotting method. Particularly, 50 μg of supernatant, which had been obtained by the same method as shown in the said experiment for measuring the activity of myeloperoxidase (MPO), was taken and then immune blotting was performed thereon. Also, an expression level of cytokines was measured by means of ELISA kit, and LPS was measured by means of LAL assay kit.
(§5) In two hours after performing a last behavioral experiment on a depressed mouse, the mouse was anesthetized, and corticosterone in blood was measured by means of ELISA, and a brain derivated neurotrophic factor (BDNF) and NF-κB of a brain and NF-κB of a colon were measured by means of immunoblotting by the same method as shown in Experimental Example 5 above, wherein the results thereof are as shown in a following table 14.

[6] = test system: C57BL/6 mouse; test: Elevated plus maze (EPM) test; type: in vivo; details: for OE (%) / OT (%): immobilization stress
From the text: In order to induce a mental disorder such as anxiety, depression, stress or the like, a mouse was fixed to a 3×10 cm cylindrical-shaped immobilization stress apparatus, such that the mouse may not move therein at all.
Particularly, in order to prepare a mouse with anxiety induced by immobilization stress, the said mouse, which had been fixed to the apparatus, was repeatedly subjected to immobilization stress five times, in such a way that the mouse was held with its head up for two hours once every other day, and then a behavioral experiment was performed in two hours after a final immobilization stress.
as §1
In order to induce a mental disorder such as anxiety, depression, stress or the like, a mouse was administered ampicillin (100 mg/kg) for two days in a row. An anxiety behavior was measured in 10 days after administration.
For a mouse model with immobilization stress induced, a lactic acid bacterium or physiological saline solution was administered thereto depending on an experimental group once daily for three days from Day 7 after starting the immobilization stress. For a mouse model with antibiotic stress induced, a lactic acid bacterium or physiological saline solution was administered thereto depending on an experimental group once daily for three days from Day 7 after starting the antibiotic stress.
as §3
An elevated plus maze is an experimental apparatus to measure a degree of a mental disorder such as stress, anxiety or the like. An elevated plus maze experimental apparatus used in the present experiment is a black plexiglass apparatus, in which two open arms (30×7 cm) and two enclosed arms (30×7 cm) with 20 cm-high walls stand 50 cm high above a floor, each extending 7 cm away from a center platform. In the present test, a mouse was placed in the elevated plus maze in a room, where a video camera of 20 Lux was installed high up there, and then a movement of the mouse was recorded.
Particularly, a C57BL/6 mouse (male, 19-22 g) was placed in the middle of the elevated plus maze, in such a way that a head of the mouse faced toward an open arm. Time spent in open and closed arms as well as the number of arm entries were measured for five minutes. An arm entry was defined as a case in which the mouse entered an arm with all four feet.
Out of a whole test time, the time spent in open arms (OT) was calculated via [Time spent in open arms (OT)/(Time spent in open arms (OT)+Time spent in closed arms)]×100. […] After the end of each behavioral experiment, remaining smell was eliminated by means of 70% ethanol.
According to a known interpretation of test results, it was interpreted that a mental disorder symptom such as anxiety, depression or the like occurs, if OT and OE decrease.

[7] = test system: mouse; test: Object recognition test; type: in vivo; details: mouse given LPS from E. coli 0.5 mg/kg/day i.p. for five days
Procedure: as §2
Particularly, as an object recognition test method, two objects (A, A′) of the same shape and size were fixed into a box (40×40×40 cm), of which outside is not visible from the inside, then a mouse was allowed to start moving at the center of the box, and then the number of touching the two objects was recorded for 10 minutes. In 24 hours later, one of the two objects was replaced with a new one (A, B), and then the number of touching an old one and a new one was recorded and quantified.

[8] = test system: BDNF in a hippocampus; test: BDNF in a hippocampus by immunoblotting (LPS-treated mouse); type: in vivo; details: mouse given LPS from E. coli 0.5 mg/kg/day i.p. for five days
Procedure: as §2

[9] = test system: mouse; test: Light/dark transition test; type: in vivo; details: immobilization stress model
Procedure: An apparatus used for a light/dark transition test consisted of a bright area (21×42×25 cm, 390 Lux white diode) and a dark area (21×42×25 cm, 2 Lux), which were of a size and partitioned off with a door (7.5×7.5 cm). A mouse was placed in a bright area and observed for five minutes, during which time in bright area and the number of transitions into the bright area were measured. After the end of each behavioral experiment, remaining smell was eliminated by means of 70% ethanol.
According to a known interpretation of test results, it was interpreted that a mental disorder symptom such as anxiety, depression or the like occurs, if the time in bright area and the number of transitions into the bright area decrease.

[10] = test system: colon; test: Colitis indicators (colon length, myeloperoxidase, inflammatory indicators of the colon); type: in vivo, mouse; details: immobilization stress
Procedure: 200 μl of 10 mM potassium phosphate buffer, pH 7.0 containing 0.5% hexadecyl trimethyl ammonium bromide was put into 100 mg of a colon tissue, and then subjected to homogenization. A resulting mixture was centrifuged for 10 minutes on condition of 4° C. and 10,000 g, so as to obtain a supernatant. 50 μl of the supernatant was put into 0.95 ml of a reaction solution (containing 1.6 mM tetramethyl benzidine and 0.1 mM H2O2), then subjected to reaction at 37° C., and then an observance was […] measured at 650 nm. An activity of the said myeloperoxidase (MPO) was calculated with a resulting reactant H2O2 1 μmol/ml=1 unit.
as §4
In two hours after performing a last behavioral experiment on an anxious mouse in Experimental Example 1, the mouse was anesthetized, and a colon length and activations of MPO, COX-2, TNF-α and NF-Kb were measured by the same method as shown in Experimental Example 5, wherein the results thereof are as shown in a following table 15.

[11] = test system: NF-κB (p-p65/p65) and BDNF in a hippocampus; test: NF-κB activity and BDNF expression in hippocampus (immunoblotting); type: in vivo; details: depressed mouse
Procedure: as §4, §5

[12] = antibiotic stress (ampicillin 100 mg/kg, two days)

O=C1CC2(CCCC2)CC(=O)N1CCCCN1CCN(c2ncccn2)CC1 [Buspirone]
Immobility time (%) [1]: 32.1% | Y maze test (%) [2]: 62.4% | Colon length (cm) [3]: 5.5 cm | Inflammatory indicator inhibition rate COX-2 ([3]; colon): + (+, 10~30%) | Inflammatory indicator inhibition rate NF-κB ([3]; colon): + (+, 10~30%) | Inflammatory indicator inhibition rate TNF-α ([3]; colon): + (+, 10~30%) | MPO inhibitory capacity ([3]; colon): + (+, 10~30%) | Immobility time (%) [4]: 25.2% | BC (ng/mL), corticosterone in blood ([5]; Anxious mouse): 1.2 ng/mL | BC (ng/mL), corticosterone in blood ([5]; Depressive mouse): 3.8 ng/mL | Blood corticosterone [5, 12]: 1.6 ng/mL | Blood corticosterone ([5]; depressed mouse, ELISA, Table 14): 3.8 ng/mL | OE (%) ([6]; Anxious mouse): 33.8% | OT (%) ([6]; Anxious mouse, once daily for three days): 16.7% | OE (%) ([6]; Depressive mouse): 29.8% | OT (%) ([6]; Depressive mouse): 15.7% | Open arm entries (%) [6, 12]: 31.3% | Time spent in open arms (%) [6, 12]: 14.1% | Object recognition test (%) [7]: 42.9% | Hippocampus BDNF expression capacity [8]: + (+, 10~30%) | Number of transitions [9]: 19.6 | Time in bright area (%) [9]: 40.1% | Colon length (cm) ([10]; Anxious mouse): 5.2 cm | Inflammatory indicator inhibition rate COX-2 ([10]; anxious mouse, colon): + (+, 10~30%) | Inflammatory indicator inhibition rate NF-κB ([10]; anxious mouse, colon): + (+, 10~30%) | Inflammatory indicator inhibition rate TNF-α ([10]; anxious mouse, colon): + (+, 10~30%) | MPO inhibitory capacity ([10]; anxious mouse, colon): + (+, 10~30%) | BDNF expression level [11]: − (− , <10%) | NF-kB activation inhibitory capacity [11]: − (− , <10%)
